Several values for one entry are separate records, joined by “and”; a condition that tells them apart may be missing. Identical values can stand only once.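 Tested at 5 concentrations; 48 h exposure; 96-well plates; endpoints linearly interpolated, else capped at highest concentration. Here, GI50 denotes the concentration required for 50% inhibition of growth. TGI is the concentration that stops growth completely.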
What was measured:
Experiment in all cases: NCI tumour cell line growth inhibition, 48 h
ACHN renal = system: ACHN renal
UACC-62 melanoma = system: UACC-62 melanoma
SK-MEL-5 melanoma = system: SK-MEL-5 melanoma
OVCAR-3 ovarian = system: OVCAR-3 ovarian
KM12 colon = system: KM12 colon
786-0 renal = system: 786-0 renal
A549 NSCLC = system: A549 NSCLC
HS 578T breast = system: HS 578T breast
SF-268 CNS = system: SF-268 CNS
MOLT-4 leukemia = system: MOLT-4 leukemia

| Structure (SMILES) | TGI (ACHN renal) | TGI (UACC-62 melanoma) [µM] | GI50 (SK-MEL-5 melanoma) [µM] | TGI (SK-MEL-5 melanoma) | GI50 (OVCAR-3 ovarian) [µM] | TGI (OVCAR-3 ovarian) | GI50 (KM12 colon) [µM] | TGI (KM12 colon) | GI50 (786-0 renal) [µM] | TGI (786-0 renal) | GI50 (A549 NSCLC) [µM] | TGI (A549 NSCLC) | TGI (HS 578T breast) [µM] | GI50 (SF-268 CNS) [µM] | TGI (SF-268 CNS) | GI50 (MOLT-4 leukemia) [µM] | TGI (MOLT-4 leukemia) | GI50 (ACHN renal) [µM] | GI50 (UACC-62 melanoma) [µM] | GI50 (HS 578T breast) [µM] |
| --- | --- | --- | --- | --- | --- | --- | --- | --- | --- | --- | --- | --- | --- | --- | --- | --- | --- | --- | --- | --- |
| C=C(C)C(O)CCC1(C)C=Cc2c(c(C)cc3c2[nH]c2ccccc23)O1 (stereo not given) | 25 µM and 16 µM | 11 | 10.1 | 25 µM and 21.7 µM | 10.3 | 24 µM and 22 µM | 2 | 12.5 µM and 4.32 µM | 3.88 | 10.8 µM and 14.2 µM | 5.02 | 25 µM and 16.1 µM | 13.5 | 5.6 | 25 µM and 19.3 µM | 3.47 | 18.7 µM and 13.8 µM | – | – | – |
| COc1cc(C(O)CCBr)c(OC)cc1C (stereo not given) | > 100 µM | 50.8 | – | > 38 µM | – | 44.1 µM | – | > 86.7 µM | – | > 100 µM | – | > 100 µM | > 89.4 | – | > 100 µM | – | > 100 µM | – | – | – |
| N#Cc1ccc(OCc2nc(N)nc(N)c2-c2ccc(Cl)c(Cl)c2)cc1 | > 100 µM | 87.7 | 0.724 | 13.2 µM | 5.24 | 38.2 µM | 2.85 | 84.5 µM | 1.48 | > 100 µM | 0.405 | 15.8 µM | 41.3 | 2.76 | > 100 µM | 3.7 | 40.8 µM | 0.8 | 0.467 | 2.65 |
| Cc1c[n+](=O)c2ccccc2n1[O-] | > 100 µM | > 100 | – | > 100 µM | – | > 100 µM | – | > 100 µM | – | > 100 µM | – | > 100 µM | > 100 | – | > 100 µM | – | > 100 µM | – | – | – |
| CC(C)Cn1cnc2c(SCc3ccc(Cl)cc3Cl)nc(N)nc21 | 76.5 µM | > 100 | – | 22.8 µM | – | > 100 µM | – | > 100 µM | – | > 100 µM | – | > 100 µM | > 100 | – | > 100 µM | – | 26.9 µM | – | – | – |
| COc1cc(/C=C\c2cc(OC)c(OC)c(OC)c2)cc(NC(=O)/C=C/c2cc(OC)c(OC)c(OC)c2)c1OC | > 100 µM | > 100 | 1.66 | 3.97 µM | 10.8 | > 100 µM | 3.42 | > 100 µM | 6.22 | > 100 µM | 4.49 | > 100 µM | > 100 | > 100 | > 100 µM | 3.15 | > 100 µM | 8.38 | 2.19 | > 100 |
| Clc1nc(Cl)c2ncn(CC3(Cn4cnc5c(Cl)nc(Cl)nc54)COC3)c2n1 | 1.12 µM | 0.903 | 0.259 | 0.855 µM | 0.202 | 0.36 µM | 0.362 | 1.01 µM | 0.762 | 2.37 µM | 0.273 | 1.19 µM | 0.868 | 0.196 | 0.372 µM | 0.462 | – | 0.57 | 0.283 | 0.316 |
| N=C1C(c2nc3ccccc3s2)=C(O)CN1c1ccc(F)c(Cl)c1 | 57.8 µM | 52.7 | 14.6 | 49.5 µM | 17.7 | 60.4 µM | 73.9 | > 100 µM | 22.7 | 57.1 µM | 11.2 | 62.2 µM | 64.5 | 22 | > 100 µM | 19.6 | > 100 µM | 17.4 | 16.8 | 22.9 |
| C=CCN=c1sc2c(n1NC(=O)c1cc3ccc1CCc1ccc(cc1)CC3)C(=O)c1ccccc1C2=O | 2.91 µM | 3.91 | 1.41 | 2.75 µM | 0.328 | 1.43 µM | 2.68 | 8.8 µM | 2.3 | 5.7 µM | 2.26 | 5.61 µM | 6.93 | 1.68 | 4.48 µM | 1.22 | 5.76 µM | 1.42 | 1.63 | 2.04 |
| CC(=O)NC1C(OC[C@@H](CC(=O)N[C@@H](CC(=O)O)CC(=O)N[C@H](CC(=O)N[C@@H](CCCN)CC(=O)N[C@@H](CCCN)CC(=O)N[C@H](CC(N)=O)C(C)C)C(C)C)NC(=O)C[C@@H](N)C(C)C)OC(CO)C(O)C1O (stereo not given in full) | > 100 µM | > 100 | > 100 | > 100 µM | > 100 | > 100 µM | > 100 | > 100 µM | > 100 | > 100 µM | > 100 | > 100 µM | > 100 | > 100 | > 100 µM | > 100 | > 100 µM | > 100 | > 100 | > 100 |
| C=C1C(=O)O[C@H]2[C@H]1CC/C(CNC(=O)/C=C/c1cc(OC)c(OC)c(OC)c1)=C\CC[C@@]1(C)O[C@@H]21 | 2.89 µM | 2.92 | 2.49 | 7.33 µM | 0.333 | 1.44 µM | 7.62 | 21.1 µM | 1.29 | 2.9 µM | 8.04 | 23.7 µM | 27.9 | 3.59 | 15.6 µM | 2.09 | 6.22 µM | 1.27 | 0.73 | 4.54 |
| N#CC1(C#N)C2(c3ccccc3)OC(c3ccccc3)(c3cc4ccccc4cc32)C1(C#N)C#N | 28.5 µM | 37 | – | 27.8 µM | – | 28.5 µM | – | 23.7 µM | – | 21.3 µM | – | 33.9 µM | 72.2 | – | 39.5 µM | – | 4.88 µM | – | – | – |
| CCCCON(OC(=O)c1ccc2ccccc2c1)C(=O)c1ccccc1 | > 100 µM | > 100 | > 100 | > 100 µM | > 100 | > 100 µM | > 100 | > 100 µM | 73.4 | > 100 µM | > 100 | > 100 µM | > 100 | > 100 | > 100 µM | 29.2 | 68.4 µM | > 100 | > 100 | > 100 |
| C[C@]12CC[C@@H]3c4ccc(OC(=O)N(CCCl)CCCl)cc4CC[C@H]3[C@@H]1CC[C@@H]2O | > 68.5 µM | 16.2 | 1.95 | 9.27 µM | 0.691 | 4.56 µM | 3.1 | 9.77 µM | 2.83 | 13.7 µM | 2.46 | – | 10.8 | 3.48 | 18.9 µM and 3.14 µM | 1.78 | 8.15 µM | 3.71 | 1.41 | 1.89 |
| C=C(CN1C(=O)CN(C)C1=O)c1ccc(C(=O)Nc2ccccc2N)cc1 | > 100 µM | 32.3 | 12.2 | 32.8 µM | 24.8 | > 100 µM | 28.6 | > 100 µM | 30.1 | > 100 µM | 25.4 | > 100 µM | > 100 | 11.5 | > 100 µM | 7.29 | 63.3 µM | 20.9 | 9.31 | 22.5 |
| COc1cccc(N2CCN(CC(=O)N3CCN(c4nnc(-c5ccc(Cl)cc5)c(-c5ccc(Cl)cc5)n4)CC3)CC2)c1 | 32.1 µM | > 100 | 8.55 | > 100 µM | 36.9 | > 100 µM | 14.3 | > 100 µM | 16.3 | 62.3 µM | 38.1 | > 100 µM | 85.7 | > 100 | > 100 µM | 3.1 | > 100 µM | 10.8 | 31.3 | 22 |
| COc1ccc(-c2nn(-c3cccc(Cl)c3)cc2-c2cc(-c3cccs3)[nH]c(=S)n2)cc1 | > 100 µM | 19.2 | 2.93 | 10.9 µM | 3.04 | 9.42 µM | 3.67 | 14.4 µM | 4.18 | > 100 µM | 2.29 | 16.5 µM | > 100 | 4.52 | 73.6 µM | 3.03 | 25.2 µM | 4.05 | 2.78 | 4.26 |
| CN(CCO)CC[C@H](CSc1ccccc1)Nc1ccc(S(=O)(=O)NC(=O)c2ccc(N3CCC([C@@H](O)c4ccccc4-c4ccc(Cl)cc4)CC3)cc2)cc1S(=O)(=O)C(F)(F)F | > 100 µM | 4.13 | 1.69 | 3.25 µM | 3.71 | 13 µM | 3.18 | 13.8 µM | 3.62 | 10.1 µM | > 100 | > 100 µM | 7.27 | 3.92 | > 46 µM | 0.0719 | 1.11 µM | > 27.8 | 1.8 | 2.23 |
| C[C@@]1(C(=O)O)CCC[C@]2(C)C1CC[C@@]13CC(=O)[C@@](CO)(CC[C@]12O)C3 (stereo not given in full) | > 100 µM | > 100 | > 100 | > 100 µM | > 100 | > 100 µM | > 100 | > 100 µM | > 100 | > 100 µM | > 100 | > 100 µM | > 100 | > 100 | > 100 µM | > 100 | > 100 µM | > 100 | > 100 | > 100 |
